Source: ChEMBL document CHEMBL1697781, “Assessment of the health effects of chemicals in humans: II. Construction of an adverse effects database for QSAR modeling” (Curr Drug Discov Technol, 2004)

What was measured:
Details in all cases: human; call rule not given here
[1] = test system: Hepatotoxicity; test: FDA HLAED, serum glutamic oxaloacetic transaminase (SGOT) increase
[2] = test system: Hepatotoxicity; test: FDA HLAED, lactate dehydrogenase (LDH) increase
[3] = test system: Hepatotoxicity; test: FDA HLAED, serum glutamic pyruvic transaminase (SGPT) increase
[4] = test system: Hepatotoxicity; test: FDA HLAED, alkaline phosphatase increase
[5] = test system: Hepatotoxicity; test: FDA HLAED, gamma-glutamyl transferase (GGT) increase
[6] = test system: Hepatotoxicity; test: FDA HLAED, liver enzyme composite activity
For GGT Increase - Index Value in this document: reference of the scale not given here.
For LDH Increase - Index Value in this document: reference of the scale not given here.

SMILES	SGOT Increase - Activity Score [1]	SGOT Increase - Index Value [1]	SGOT Increase - Number of Reports [1]	LDH Increase - Activity Score [2]	LDH Increase - Index Value [2]	LDH Increase - Number of Reports [2]	SGPT Increase - Activity Score [3]	SGPT Increase - Index Value [3]	SGPT Increase - Number of Reports [3]	Alkaline Phosphatase Increase - Activity Score [4]	Alkaline Phosphatase Increase - Index Value [4]	Alkaline Phosphatase Increase - Number of Reports [4]	GGT Increase - Activity Score [5]	GGT Increase - Index Value [5]	GGT Increase - Number of Reports [5]	Composite Activity - Active [6]	Composite Activity - Marginal [6]	Composite Activity - Score [6]	further results
CCOC(=O)C1=C(C)NC(C)=C(C(=O)OC)C1c1cccc(Cl)c1Cl (stereo unspecified) [FELODIPINE]	Inactive	0.3	< 4	Inactive	0.3	< 4	Inactive	0.3	< 4	Inactive	0.6	< 4	Inactive	0.3	< 4	0	0	Inactive	
CC(C)(C(=O)O)c1ccc(C(O)CCCN2CCC(C(O)(c3ccccc3)c3ccccc3)CC2)cc1 (stereo unspecified) [FEXOFENADINE]	Inactive	0	< 4	Inactive	0	< 4	Inactive	0	< 4	Inactive	0	< 4	Inactive	0	< 4				Composite Activity - Active ([6]; Liver): 0; Composite Activity - Marginal ([6]; Liver): 0; Composite Activity - Score ([6]; Liver): Inactive
CC(C)(C)NC(=O)[C@H]1CC[C@H]2[C@@H]3CC[C@H]4NC(=O)C=C[C@]4(C)[C@H]3CC[C@]12C [FINASTERIDE]	Inactive	2.7	>= 4	Inactive	1.1	>= 4	Inactive	2.7	>= 4	Inactive	2.5	>= 4	Inactive	1	>= 4	0	0	Inactive	
O=C(NCC1CCCCN1)c1cc(OCC(F)(F)F)ccc1OCC(F)(F)F (stereo unspecified) [FLECAINIDE]	Active	9.6	>= 4	Marginally Active	3.2	>= 4	Active	8.3	>= 4	Active	8.3	>= 4	Inactive	0	< 4	3	1	Active	
Cn1cc([S+](C)[O-])c(=O)c2ccc(F)cc21 (stereo unspecified) [FLOSEQUINAN]	Inactive	28.3	< 4	Active	56.6	>= 4	Inactive	28.3	< 4	Inactive	14.1	< 4	Inactive	0	< 4	1	0	Inactive	
OC(Cn1cncn1)(Cn1cncn1)c1ccc(F)cc1F [FLUCONAZOLE]	Active	9.8	>= 4	Marginally Active	3	>= 4	Active	9.1	>= 4	Active	8.4	>= 4	Active	4.2	>= 4				Composite Activity - Active ([6]; Liver): 4; Composite Activity - Marginal ([6]; Liver): 1; Composite Activity - Score ([6]; Liver): Active
Nc1nc(F)nc2c1ncn2[C@@H]1O[C@H](CO)[C@@H](O)[C@@H]1O [FLUDARABINE]	Active	9.2	>= 4	Active	18.3	>= 4	Active	10.7	>= 4	Active	9.2	>= 4	Inactive	0	< 4	4	0	Active	
CCOC(=O)c1ncn2c1CN(C)C(=O)c1cc(F)ccc1-2 [FLUMAZENIL]	Inactive	2.5	< 4	Inactive	0	< 4	Inactive	2.5	< 4	Inactive	0	< 4	Inactive	0	< 4	0	0	Inactive	
CC1(C)O[C@@H]2C[C@H]3[C@@H]4C[C@H](F)C5=CC(=O)C=C[C@]5(C)[C@H]4[C@@H](O)C[C@]3(C)[C@]2(C(=O)CO)O1 [FLUNISOLIDE]	Inactive	0	< 4	Inactive	0	< 4	Inactive	0	< 4	Inactive	0	< 4	Inactive	0	< 4	0	0	Inactive	
CNCCC(Oc1ccc(C(F)(F)F)cc1)c1ccccc1 (stereo unspecified) [FLUOXETINE]	Active	9.6	>= 4	Marginally Active	3.2	>= 4	Active	8.7	>= 4	Active	4.7	>= 4	Marginally Active	3.3	>= 4	3	2	Active	
CC(C(=O)O)c1ccc(-c2ccccc2)c(F)c1 (stereo unspecified) [FLURBIPROFEN]	Inactive	0.9	>= 4	Inactive	0.2	< 4	Inactive	0.9	>= 4	Inactive	0.9	>= 4	Inactive	0.9	>= 4	0	0	Inactive	
CC(C)C(=O)Nc1ccc([N+](=O)[O-])c(C(F)(F)F)c1 [FLUTAMIDE]	Active	22.4	>= 4	Active	8.4	>= 4	Active	20.2	>= 4	Active	16.8	>= 4	Active	6.7	>= 4	5	0	Active	
